# Patent publication US4839374A, “4-((Bicyclic heterocyclyl)-methyl and -hetero)-piperidines” (Janssen Pharmaceutica, N.V., priority 1987, dated 1989)
# Like-named read-outs stand apart in the source and are kept apart here.
# How the values were obtained:
# effects of serotonin = assay: Antagonistic activity on the effects of serotonin in the gastric lesion test (lesions induced by compound 48/80); format: in vivo, rats of a Wistar inbred strain; conditions: for ED50: Rattus norvegicus, po, read-out: gastric lesion test ED50
# In short: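 Fasted male Wistar rats (220–250 g) dosed orally with compound; 1 h later 2.5 mg/kg s.c. H1 antagonist, then compound 48/80 i.v. Stomachs examined 4 h afterwards for distension and glandular lesions (scored 0 to +++); ED50 is the oral dose (mg/kg) abolishing both in 50% of rats.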
# [1] = system: compound 48/80-induced lethality; assay: Protection of rats from compound 48/80-induced lethality; format: in vivo, rats of an inbred Wistar strain; conditions: protection of 50% of animals, survival after 4 hours; for ED50: Rattus norvegicus, 4 h, read-out: Compound 48/80 lethality test in rats ED50, s.c. or p.o. 1 h before compound 48/80 0.5 mg/kg i.v.
# In short: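 Male inbred Wistar rats (240-260 g), starved overnight, dosed subcutaneously or orally with compound or 0.9% NaCl before compound 48/80 challenge. Survival at 4 hours counted as protection. ED50 in mg/kg is the dose protecting 50% of animals from lethality.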
# [2] = compound 48/80 1 mg/kg i.v., distension and lesions of stomach completely absent in 50% of rats
SMILES,ED50 (effects of serotonin; [2]) [mg/kg],ED50 [1] [mg/kg],ED50 (effects of serotonin) [mg/kg],"gastric lesion test ED50 (effects of serotonin; oral, compound 48/80 1 mg/kg i.v., distension and lesions of stomach completely absent in 50% of rats, 1 mg/kg) [mg/kg body weight]","Compound 48/80 lethality test in rats ED50 ([1]; s.c. or p.o. 1 h before compound 48/80 0.5 mg/kg i.v., 0.5 mg/kg, 240 min) [mg/kg body weight]"
"CC(=O)N(CCN1CCC(Cc2nc3ccccc3n2Cc2ccc(F)cc2)CC1)c1ncccn1 [Compound 510, N-[2-[4-[[1-[(4-fluorophenyl)methyl]-1H-benzimidazol-2-yl]methyl]-1-piperidinyl]ethyl]-N-(2-pyrimidinyl)acetamide]",0.16,0.02,,,
"O=c1cc[nH]c(NCCN2CCC(Cc3nc4ccccc4n3Cc3ccc(F)cc3)CC2)n1 [Compound 331, 2-[[2-[4-[[1-[(4-fluorophenyl)methyl]-1H-benzimidazol-2-yl]methyl]-1-piperidinyl]ethyl]amino]-4(1H)-pyrimidinone]",0.02,0.04,,,
Cc1nc2n(c(=O)c1CCN1CCC(Cc3nc4ccccc4n3Cc3cccs3)CC1)CCCC2 [Compound 263],,0.04,0.04,,
N#CCN1CCC(Cc2nc3ccccc3n2Cc2ccc(F)cc2)CC1 [Compound 283],0.63,0.04,,,
CN1CCC(Cc2nc3ccccc3n2Cc2ccc(F)cc2)CC1 [Compound 82],0.63,0.005,,,
CCOCCN1CCC(Cc2nc3cccnc3n2Cc2ccc(F)cc2)CC1 [Compound 126],0.63,0.04,,,
O=c1[nH]c2ccccc2c(=O)n1CCN1CCC(Cc2nc3ccccc3n2Cc2cccs2)CC1 [Compound 186],0.31,0.04,,,
"O=[N+]([O-])c1cc[n+]([O-])cc1NCCN1CCC(Cc2nc3ccccc3n2Cc2ccc(F)cc2)CC1 [Compound 379, N-[2-[4-[[1-[(4-fluorophenyl)methyl]-1H-benzimidazol-2-yl]methyl]-1-piperidinyl]ethyl]-4-nitro-3-pyridinamine, 1-oxide]",0.31,0.08,,,
"Nc1nccnc1C(=O)NCCN1CCC(Cc2nc3ccccc3n2Cc2ccc(F)cc2)CC1 [Compound 436, 3-amino-N[2-[4-[[1-[(4-fluorophenyl)methyl]-1H-benzimidazol-2-yl]methyl]-1-piperidinyl]ethyl]-2-pyrazinecarboxamide]",0.63,0.01,,,
"O=c1c2ccccc2[nH]c(=S)n1CCN1CCC(Cc2nc3ccccc3n2Cc2ccc(F)cc2)CC1 [Compound 460, 3-[2-[4-[[1-[(4-fluorophenyl)methyl]-1H-benzimidazol-2-yl]methyl]-1-piperidinyl]ethyl]-2,3-dihydro-2-thioxo-4(1H)-quinazolinone]",0.63,0.08,,,
COc1ccc(CCN2CCC(Cc3nc4ccccc4n3Cc3ccco3)CC2)cc1 [Compound 229],0.63,0.04,,,
"Fc1ccc(Cn2c(CC3CCN(C4CCN(c5ncccn5)CC4)CC3)nc3ccccc32)cc1 [Compound 347, 4-[[1-[(4-fluorophenyl)methyl]-1H-benzimidazol-2-yl]methyl]-1'-(2-pyrimidinyl)-[1,4'-bipiperidine]]",0.63,0.08,,,
COc1ccc(CCN2CCC(Cc3nc4cccnc4n3Cc3ccco3)CC2)cc1 [Compound 189],0.63,0.02,,,
"c1coc(Cn2c(CC3CCN(CCNc4nc5cnccc5[nH]4)CC3)nc3ccccc32)c1 [Compound 418, N-[2-[4-[[1-(2-furanylmethyl)-1H-benzimidazol-2-yl]methyl]-1-piperidinyl]ethyl]-1H-imidazo[4,5-c]pyridin-2-amine]",,0.02,0.04,,
"Fc1ccc(Cn2c(CC3CCN(CCNc4ncccn4)CC3)nc3ncccc32)cc1 [Compound 348, N-[2-[4[[1-[(4-fluorophenyl)methyl]-1H-imidazo[4,5-b]pyridin-2-yl]methyl]-1-piperidinyl]ethyl]-2-pyrimidinamine]",,0.04,0.04,,
"O=C1OCCN1CCN1CCC(Cc2nc3ccccc3n2Cc2ccc(F)cc2)CC1 [Compound 385, 3-[2-[4-[[1-[(4-fluorophenyl)methyl]-1H-benzimidazol-2-yl]methyl]-1-piperidinyl]ethyl]2-oxazolidinone]",,0.01,0.08,,

SMILES,ED50 (effects of serotonin; [2]) [mg/kg],ED50 [1] [mg/kg],ED50 (effects of serotonin) [mg/kg],"gastric lesion test ED50 (effects of serotonin; oral, compound 48/80 1 mg/kg i.v., distension and lesions of stomach completely absent in 50% of rats, 1 mg/kg) [mg/kg body weight]","Compound 48/80 lethality test in rats ED50 ([1]; s.c. or p.o. 1 h before compound 48/80 0.5 mg/kg i.v., 0.5 mg/kg, 240 min) [mg/kg body weight]"
Cc1nc2ccccn2c(=O)c1CCN1CCC(Cc2nc3ccccc3n2Cc2ccco2)CC1 [Compound 218],,0.04,0.04,,
"Nc1ccccc1C(=O)NCCN1CCC(Cc2nc3ccccc3n2Cc2ccc(F)cc2)CC1 [Compound 468, 2-amino-N-[2-[4-[[1-[(4-fluorophenyl)methyl]-1H-benzimidazol-2-yl]methyl]-1-piperidinyl]ethyl]benzamide]",0.63,0.02,,,
Cc1nc2ccccn2c(=O)c1CCN1CCC(Cc2nc3ccccc3n2Cc2ccc(F)cc2)CC1 [Compound 214],,0.08,0.04,,
S=C=NCCN1CCC(Cc2nc3ccccc3n2Cc2ccco2)CC1 [Compound 399],,0.02,0.04,,
"Oc1nc2cncnc2n1CCN1CCC(Cc2nc3ccccc3n2Cc2ccc(F)cc2)CC1 [Compound 502, 9-[2-[4-[[1-[(4-fluorophenyl)methyl]-1H-benzimidazol-2-yl]methyl]-1-piperidinyl]ethyl]-9H-purin-8-ol]",0.16,0.08,,,
COc1ccc(CCN2CCC(Cc3nc4cccnc4n3Cc3ccccc3)CC2)cc1 [Compound 198],,0.04,0.08,,
"Cc1nc2n(c(=O)c1CCN1CCC(Cc3nc4ccccc4n3Cc3ccc(F)cc3)CC1)CCCC2 [Compound 498, 3-[2-[4-[[1-[(4-fluorophenyl)methyl]-1H-benzimidazol-2-yl]methyl]-1-piperidinyl]ethyl]-6,7,8,9-tetrahydro-2-methyl-4H-pyrido[1,2-a]pyrimidin-4-one]",0.16,0.08,,,
"Fc1ccc(Cn2c(CC3CCN(CCOc4ncccn4)CC3)nc3ccccc32)cc1 [Compound 391, 1-[(4-fluorophenyl)methyl]-2-[[1-[2-(2-pyrimidinyloxy)ethyl]-4-piperidinyl]methyl]-1H-benzimidazole]",0.02,0.02,,,
Fc1ccc(Cn2c(CC3CCN(CCNc4cc(Cl)ncn4)CC3)nc3ccccc32)cc1 [Compound 384],0.63,0.08,,,
COc1ccc(CCN2CCC(Cc3nc4ccc(O)cc4n3Cc3ccc(F)cc3)CC2)cc1 [Compound 276],0.31,0.04,,,
Fc1ccc(Cn2c(CC3CCN(CCNc4nc5ccccc5s4)CC3)nc3ccccc32)cc1 [Compound 367],0.16,0.16,,,
O=C(CCCN1CCC(Cc2nc3cccnc3n2Cc2ccc(F)cc2)CC1)c1ccc(F)cc1 [Compound 228],,,,0.01,0.04
"CCOC(=O)c1csc(NCCN2CCC(Cc3nc4ccccc4n3Cc3ccc(F)cc3)CC2)n1 [Compound 455, ethyl 2-[(2-[4-[(1-[(4-fluorophenyl)methyl]-1H-benzimidazol-2-yl]methyl]-1-piperidinyl]ethyl]amino]-4-thiazolecarboxylate]",0.63,0.04,,,
"Oc1ccc(CCN2CCC(Cc3nc4ccccc4n3Cc3ccc(F)cc3)CC2)cc1 [Compound 504, 4-[2-[4-[[1-[(4-fluorophenyl)methyl]-1H-benzimidazol-2-yl]methyl]-1-piperidinyl]ethyl]phenol]",0.63,0.08,,,
O=c1[nH]c2ccccc2c(=O)n1CCN1CCC(Cc2nc3ccccc3n2Cc2ccco2)CC1 [Compound 208],,0.04,0.08,,
O=C(NCCN1CCC(Cc2nc3ccccc3n2Cc2ccc(F)cc2)CC1)c1ccsc1 [Compound 431],0.005,0.04,,,
